In patent US20120083522A1, “MODULATION OF INFLAMMATORY RESPONSES BY FACTOR XI” (Isis Pharmaceuitcals, inc., priority 2009, published 2012):
In the oligonucleotide strings, read from the 5' end, every base follows the letter of its sugar. An asterisk marks phosphorothioate; unmarked linkages are phosphodiester. Other units and linkages are bracketed, terminal groups are in braces. A string of capitals states the bases alone. e = 2'-O-(2-methoxyethyl) (MOE); [5mC] = 5-methylcytosine; d = 2'-deoxy (DNA)

Assays:
Type in all cases: cell-based
[1] = tested on: human Factor XI mRNA; experiment: Antisense inhibition in HepG2 cells by microwalk gapmers, 75 nM, lipofectin (Example 3); conditions: HepG2 cells, 75 nM, oligonucleotides targeted to nucleobases 1062 to 1091 of SEQ ID NO: 1
Procedure: These gapmers were designed by creating gapmers shifted slightly upstream and downstream (i.e. “microwalk”) of the original gapmers from Table 3. Gapmers were also created with various motifs, e.g. 5-10-5 MOE, 3-14-3 MOE, and 2-13-5 MOE. These gapmers were tested in vitro. Cultured HepG2 cells at a density of 10,000 cells per well were transfected using lipofectin reagent with 75 nM antisense oligonucleotide. After a treatment period of approximately 24 hours, RNA was isolated from the cells and Factor XI mRNA levels were measured by quantitative real-time PCR. Factor XI mRNA levels were adjusted according to total RNA content, as measured by RIBOGREEN®. Results are presented as percent inhibition of Factor XI, relative to untreated control cells.
The chimeric antisense oligonucleotides in Table 4 were designed as 5-10-5 MOE, 3-14-3 MOE, and 2-13-5 MOE gapmers. The first listed gapmers in Table 4 are the original gapmers (see Table 3) from which the remaining gapmers were designed via microwalk and are designated by an asterisk. The 5-10-5 gapmers are 20 nucleotides in length, wherein the central gap segment is comprised of 10 2′-deoxynucleotides and is flanked on both sides (in the 5′ and 3′ directions) by wings comprising 5 nucleotides each. The 3-14-3 gapmers are 20 nucleotides in length, wherein the central gap segment is comprised of 14 2′-deoxynucleotides and is flanked on both sides (in the 5′ and 3′ directions) by wings comprising 3 nucleotides each. The 2-13-5 gapmers are 20 nucleotides in length, wherein the central gap segment is comprised of 13 2′-deoxynucleotides. The central gap is flanked on the 5′ end with a wing comprising 2 nucleotides and on the 3′ end with a wing comprising 5 nucleotides. For each of the motifs (5-10-5, 3-14-3, and 2-13-5), each nucleotide in the 5′ wing segment and each nucleotide in the 3′ wing segment has a 2′-MOE modification. The internucleoside linkages throughout each gapmer are phosphorothioate (P═S) linkages. All cytidine residues throughout each gapmer are 5-methylcytidines. “Target start site” indicates the 5′-most nucleotide to which the gapmer is targeted. “Target stop site” indicates the 3′-most nucleotide to which the gapmer is targeted. Each gapmer listed in Table 4 is targeted to SEQ ID NO: 1 (GENBANK Accession No. NM_000128.3).

[2] = tested on: human Factor XI mRNA; experiment: Dose-dependent inhibition in HepG2 cells, electroporation (Example 4); conditions: 16 hours
Procedure: (§1) The gapmers were also transfected via electroporation and their dose dependent inhibition of human Factor XI mRNA was measured. Cells were plated at a density of 20,000 cells per well and transfected via electroporation with 0.7 μM, 2.2 μM, 6.7 μM, and 20 μM concentrations of antisense oligonucleotide, as specified in Table 10. After a treatment period of approximately 16 hours, RNA was isolated from the cells and Factor XI mRNA levels were measured by quantitative real-time PCR. Human Factor XI primer probe set RTS 2966 was used to measure mRNA levels. Factor XI mRNA levels were adjusted according to total RNA content, as measured by RIBOGREEN®. Results are presented as percent inhibition of Factor XI, relative to untreated control cells.

[3] = tested on: human Factor XI mRNA; experiment: Dose-dependent inhibition in HepG2 cells, lipofectin (Example 4); conditions: 16 hours
Procedure: as §1, with “Cells” for “The gapmers were also transfected via electroporation and their dose dependent inhibition of human Factor XI mRNA was measured. Cells”, “10,000” for “20,000”, “using lipofectin reagent” for “via electroporation”, “9.375 nM, 18.75 nM, 37.5 nM” for “0.7 μM, 2.2 μM, 6.7 μM,”, “75 nM” for “20 μM”, “9.” for “10.”

416839 (antisense eG*eA*eT*eT*e[5mC]*dT*dT*dT*dG*dG*dG*d[5mC]*d[5mC]*dA*dT*eT*e[5mC]*e[5mC]*eT*eG) [compound 416839]
% inhibition of human Factor XI mRNA levels [1]: 89%

416840 (antisense eA*eG*eA*eT*eT*d[5mC]*dT*dT*dT*dG*dG*dG*d[5mC]*d[5mC]*dA*eT*eT*e[5mC]*e[5mC]*eT) [compound 416840]
% inhibition of human Factor XI mRNA levels [1]: 85%

416841 (antisense eG*eA*eG*eA*eT*dT*d[5mC]*dT*dT*dT*dG*dG*dG*d[5mC]*d[5mC]*eA*eT*eT*e[5mC]*e[5mC]) [compound 416841]
% inhibition of human Factor XI mRNA levels [1]: 87%

416843 (antisense eT*eT*eT*eG*eA*dG*dA*dT*dT*d[5mC]*dT*dT*dT*dG*dG*eG*e[5mC]*e[5mC]*eA*eT) [compound 416843]
% inhibition of human Factor XI mRNA levels [1]: 89%

416895 (antisense eT*eA*eT*dG*d[5mC]*d[5mC]*d[5mC]*dT*dT*d[5mC]*dA*dT*dG*dT*d[5mC]*dT*dA*eG*eG*eT) [compound 416895]
percent inhibition of Factor XI mRNA, relative to untreated control cells ([2]; 0.7 μM): 0% | percent inhibition of Factor XI mRNA, relative to untreated control cells ([2]; 2.2 μM): 62% | percent inhibition of Factor XI mRNA, relative to untreated control cells ([2]; 6.7 μM): 70% | percent inhibition of Factor XI mRNA, relative to untreated control cells ([2]; 20 μM): 91% | percent inhibition of Factor XI mRNA, relative to untreated control cells ([3]; 9.375 nM): 39% | percent inhibition of Factor XI mRNA, relative to untreated control cells ([3]; 18.75 nM): 57% | percent inhibition of Factor XI mRNA, relative to untreated control cells ([3]; 37.5 nM): 66% | percent inhibition of Factor XI mRNA, relative to untreated control cells ([3]; 75 nM): 71%

416896 (antisense eT*eT*eA*dT*dG*d[5mC]*d[5mC]*d[5mC]*dT*dT*d[5mC]*dA*dT*dG*dT*d[5mC]*dT*eA*eG*eG) [compound 416896]
percent inhibition of Factor XI mRNA, relative to untreated control cells ([2]; 0.7 μM): 12% | percent inhibition of Factor XI mRNA, relative to untreated control cells ([2]; 2.2 μM): 35% | percent inhibition of Factor XI mRNA, relative to untreated control cells ([2]; 6.7 μM): 81% | percent inhibition of Factor XI mRNA, relative to untreated control cells ([2]; 20 μM): 89% | percent inhibition of Factor XI mRNA, relative to untreated control cells ([3]; 9.375 nM): 22% | percent inhibition of Factor XI mRNA, relative to untreated control cells ([3]; 18.75 nM): 39% | percent inhibition of Factor XI mRNA, relative to untreated control cells ([3]; 37.5 nM): 57% | percent inhibition of Factor XI mRNA, relative to untreated control cells ([3]; 75 nM): 81%

416945 (antisense eA*eA*dT*dG*dT*d[5mC]*dT*dT*dT*dG*dT*dT*dG*d[5mC]*dA*eA*eG*e[5mC]*eG*e[5mC]) [compound 416945]
percent inhibition of Factor XI mRNA, relative to untreated control cells ([2]; 0.7 μM): 48% | percent inhibition of Factor XI mRNA, relative to untreated control cells ([2]; 2.2 μM): 70% | percent inhibition of Factor XI mRNA, relative to untreated control cells ([2]; 6.7 μM): 81% | percent inhibition of Factor XI mRNA, relative to untreated control cells ([2]; 20 μM): 88% | percent inhibition of Factor XI mRNA, relative to untreated control cells ([3]; 9.375 nM): 34% | percent inhibition of Factor XI mRNA, relative to untreated control cells ([3]; 18.75 nM): 45% | percent inhibition of Factor XI mRNA, relative to untreated control cells ([3]; 37.5 nM): 62% | percent inhibition of Factor XI mRNA, relative to untreated control cells ([3]; 75 nM): 65%

416969 (antisense eG*e[5mC]*d[5mC]*d[5mC]*dT*dT*d[5mC]*dA*dT*dG*dT*d[5mC]*dT*dA*dG*eG*eT*e[5mC]*e[5mC]*eA) [compound 416969]
percent inhibition of Factor XI mRNA, relative to untreated control cells ([2]; 0.7 μM): 25% | percent inhibition of Factor XI mRNA, relative to untreated control cells ([2]; 2.2 μM): 34% | percent inhibition of Factor XI mRNA, relative to untreated control cells ([2]; 6.7 μM): 86% | percent inhibition of Factor XI mRNA, relative to untreated control cells ([2]; 20 μM): 92% | percent inhibition of Factor XI mRNA, relative to untreated control cells ([3]; 9.375 nM): 17% | percent inhibition of Factor XI mRNA, relative to untreated control cells ([3]; 18.75 nM): 39% | percent inhibition of Factor XI mRNA, relative to untreated control cells ([3]; 37.5 nM): 61% | percent inhibition of Factor XI mRNA, relative to untreated control cells ([3]; 75 nM): 76%

416972 (antisense eT*eA*dT*dG*d[5mC]*d[5mC]*d[5mC]*dT*dT*d[5mC]*dA*dT*dG*dT*d[5mC]*eT*eA*eG*eG*eT) [compound 416972]
percent inhibition of Factor XI mRNA, relative to untreated control cells ([2]; 0.7 μM): 25% | percent inhibition of Factor XI mRNA, relative to untreated control cells ([2]; 2.2 μM): 30% | percent inhibition of Factor XI mRNA, relative to untreated control cells ([2]; 6.7 μM): 48% | percent inhibition of Factor XI mRNA, relative to untreated control cells ([2]; 20 μM): 88% | percent inhibition of Factor XI mRNA, relative to untreated control cells ([3]; 9.375 nM): 32% | percent inhibition of Factor XI mRNA, relative to untreated control cells ([3]; 18.75 nM): 40% | percent inhibition of Factor XI mRNA, relative to untreated control cells ([3]; 37.5 nM): 60% | percent inhibition of Factor XI mRNA, relative to untreated control cells ([3]; 75 nM): 69%

416973 (antisense eT*eT*dA*dT*dG*d[5mC]*d[5mC]*d[5mC]*dT*dT*d[5mC]*dA*dT*dG*dT*e[5mC]*eT*eA*eG*eG) [compound 416973]
percent inhibition of Factor XI mRNA, relative to untreated control cells ([2]; 0.7 μM): 20% | percent inhibition of Factor XI mRNA, relative to untreated control cells ([2]; 2.2 μM): 48% | percent inhibition of Factor XI mRNA, relative to untreated control cells ([2]; 6.7 μM): 86% | percent inhibition of Factor XI mRNA, relative to untreated control cells ([2]; 20 μM): 93% | percent inhibition of Factor XI mRNA, relative to untreated control cells ([3]; 9.375 nM): 60% | percent inhibition of Factor XI mRNA, relative to untreated control cells ([3]; 18.75 nM): 75% | percent inhibition of Factor XI mRNA, relative to untreated control cells ([3]; 37.5 nM): 85% | percent inhibition of Factor XI mRNA, relative to untreated control cells ([3]; 75 nM): 87%
